Experimental data reported in ChEMBL document CHEMBL1201862, “PubChem BioAssay data set” (2004).
One block for each compound: values may come before it. The source made the active and inactive calls.

Assays:
Coagulation factor XII = target: T1, Coagulation factor XII (Homo sapiens, UniProt P00748); test: FXIIa inhibitor potency, concentration-response, biochemical (AID 716); assay type: functional
T1 sequence (P00748 whole entry): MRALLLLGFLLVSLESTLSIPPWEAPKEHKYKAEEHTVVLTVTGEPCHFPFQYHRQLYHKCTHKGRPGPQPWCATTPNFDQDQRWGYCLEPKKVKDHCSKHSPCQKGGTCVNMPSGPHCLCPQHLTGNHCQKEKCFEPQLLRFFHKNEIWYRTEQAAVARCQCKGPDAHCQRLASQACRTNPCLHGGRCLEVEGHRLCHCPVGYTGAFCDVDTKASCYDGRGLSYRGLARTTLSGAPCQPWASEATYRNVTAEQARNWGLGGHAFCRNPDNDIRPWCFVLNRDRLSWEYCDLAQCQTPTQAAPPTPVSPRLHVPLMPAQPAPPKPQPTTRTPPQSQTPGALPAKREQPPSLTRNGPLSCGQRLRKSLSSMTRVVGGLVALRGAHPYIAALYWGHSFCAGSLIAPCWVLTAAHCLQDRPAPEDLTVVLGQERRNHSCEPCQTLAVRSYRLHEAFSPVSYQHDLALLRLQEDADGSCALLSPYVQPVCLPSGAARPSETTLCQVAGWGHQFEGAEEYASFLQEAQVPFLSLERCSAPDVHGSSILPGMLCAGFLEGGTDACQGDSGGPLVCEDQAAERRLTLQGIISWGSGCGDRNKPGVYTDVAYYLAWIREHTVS

[1] = mammalian cell cytotoxicity, dose response, cytotoxicity control, plate reader, cherry-pick samples (AID 504397); assay type: functional, cell-based
[2] = target: T2, Heat shock factor protein 1 (Mus musculus, UniProt P38532); test: inhibition of MG132-induced HSE-luciferase signal, confirmation, cell-based, NIH3T3, luminescence, dose retest (AID 2382); assay type: functional;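 note: NIH3T3 fibroblasts with HSF1-driven luciferase reporter stressed by proteasome inhibitor MG132; luminescence from HSF1-driven luciferase expression after 8 hours of MG132 stress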
T2 sequence (P38532 whole entry): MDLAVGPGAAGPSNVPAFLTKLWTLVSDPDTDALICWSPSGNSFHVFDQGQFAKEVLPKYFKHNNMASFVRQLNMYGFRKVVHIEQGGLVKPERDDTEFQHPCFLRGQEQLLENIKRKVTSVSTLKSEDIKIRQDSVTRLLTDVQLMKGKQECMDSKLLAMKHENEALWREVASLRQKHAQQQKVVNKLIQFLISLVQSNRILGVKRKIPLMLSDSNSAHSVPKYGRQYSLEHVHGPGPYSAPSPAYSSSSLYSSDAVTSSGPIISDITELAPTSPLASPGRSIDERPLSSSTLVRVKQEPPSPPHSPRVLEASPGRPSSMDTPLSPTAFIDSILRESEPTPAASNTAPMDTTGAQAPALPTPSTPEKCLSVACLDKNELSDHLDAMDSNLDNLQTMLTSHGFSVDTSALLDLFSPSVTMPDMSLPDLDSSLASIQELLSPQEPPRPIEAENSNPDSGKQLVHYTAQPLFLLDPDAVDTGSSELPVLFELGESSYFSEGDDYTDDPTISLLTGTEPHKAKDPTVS

CAAX prenyl protease 2 = target: T3, CAAX prenyl protease 2 (Saccharomyces cerevisiae S288c, UniProt Q03530); assay type: biochemical
T3 sequence (Q03530 whole entry): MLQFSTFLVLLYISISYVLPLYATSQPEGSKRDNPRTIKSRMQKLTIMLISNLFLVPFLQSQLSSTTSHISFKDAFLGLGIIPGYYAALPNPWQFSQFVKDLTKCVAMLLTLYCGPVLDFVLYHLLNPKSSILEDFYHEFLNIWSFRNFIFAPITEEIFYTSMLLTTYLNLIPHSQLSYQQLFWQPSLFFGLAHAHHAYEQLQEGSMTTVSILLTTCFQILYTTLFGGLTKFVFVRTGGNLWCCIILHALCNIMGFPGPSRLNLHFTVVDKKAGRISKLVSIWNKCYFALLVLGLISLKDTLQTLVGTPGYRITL

SUMO-activating enzyme = SUMO-activating enzyme (Homo sapiens, UniProt Q9UBT2); test: SUMOylation inhibitor hit validation, confirmation, SUMOylation inhibitor project, biochemical, AlphaScreen (AID 2018); assay type: functional
SUMO-activating enzyme, sequence (Q9UBE0 whole entry, the tested form may be a part): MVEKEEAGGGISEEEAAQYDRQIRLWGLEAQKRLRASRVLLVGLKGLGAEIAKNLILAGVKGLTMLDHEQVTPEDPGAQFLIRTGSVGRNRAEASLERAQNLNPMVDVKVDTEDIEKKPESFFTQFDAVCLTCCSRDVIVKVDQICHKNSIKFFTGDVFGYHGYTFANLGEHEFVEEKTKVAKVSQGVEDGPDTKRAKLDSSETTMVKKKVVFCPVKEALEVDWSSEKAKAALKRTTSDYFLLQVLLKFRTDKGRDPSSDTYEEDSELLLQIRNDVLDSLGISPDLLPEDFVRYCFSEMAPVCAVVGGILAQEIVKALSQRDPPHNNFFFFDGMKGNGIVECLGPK
SUMO-activating enzyme, sequence (Q9UBT2 whole entry, the tested form may be a part): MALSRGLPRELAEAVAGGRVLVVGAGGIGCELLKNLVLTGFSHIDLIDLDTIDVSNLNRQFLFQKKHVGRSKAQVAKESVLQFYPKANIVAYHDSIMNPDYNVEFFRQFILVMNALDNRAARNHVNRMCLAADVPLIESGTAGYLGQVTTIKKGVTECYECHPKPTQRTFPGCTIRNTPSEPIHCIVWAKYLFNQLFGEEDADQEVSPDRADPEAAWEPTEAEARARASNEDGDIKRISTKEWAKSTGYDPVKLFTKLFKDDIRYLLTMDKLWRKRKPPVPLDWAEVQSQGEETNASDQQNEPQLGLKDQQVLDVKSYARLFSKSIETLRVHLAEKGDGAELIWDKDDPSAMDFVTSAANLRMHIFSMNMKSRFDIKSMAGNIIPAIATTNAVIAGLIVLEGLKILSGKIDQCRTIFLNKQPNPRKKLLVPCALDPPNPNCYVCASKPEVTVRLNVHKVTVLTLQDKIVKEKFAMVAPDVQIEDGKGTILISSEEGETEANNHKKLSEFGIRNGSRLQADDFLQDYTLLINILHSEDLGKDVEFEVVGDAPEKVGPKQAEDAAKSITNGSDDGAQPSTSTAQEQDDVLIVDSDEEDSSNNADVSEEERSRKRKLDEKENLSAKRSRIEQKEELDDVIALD

[3] = target: T4, Type-1 angiotensin II receptor (Homo sapiens, UniProt P30556); test: AT1 receptor agonists, dose response, selectivity assay for APJ receptor agonist project, cell-based, uHTS hits (AID 488865); assay type: functional;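 note: beta-arrestin recruitment to AT1 measured by enzyme fragment complementation luminescence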
T4 sequence (P30556 whole entry): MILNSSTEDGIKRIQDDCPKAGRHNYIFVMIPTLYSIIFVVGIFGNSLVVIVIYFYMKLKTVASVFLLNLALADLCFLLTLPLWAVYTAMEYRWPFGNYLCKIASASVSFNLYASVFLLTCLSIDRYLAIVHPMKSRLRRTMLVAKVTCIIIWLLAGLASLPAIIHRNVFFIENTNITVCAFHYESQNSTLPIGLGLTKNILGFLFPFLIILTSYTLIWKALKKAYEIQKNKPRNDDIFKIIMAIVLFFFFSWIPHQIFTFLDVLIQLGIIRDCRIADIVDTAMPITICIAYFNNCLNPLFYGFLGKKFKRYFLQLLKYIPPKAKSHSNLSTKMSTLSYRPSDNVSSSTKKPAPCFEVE

HEK293 = test: inhibitors of LMP1-driven NF-kB reporter, dose response, cell-based, HEK293, luciferase, cherry-pick (AID 588343); assay type: functional; settings: Homo sapiens
[4] = cytotoxicity toward NIH3T3 fibroblasts, dose response, counter-screen, cell-based, ATP luminescence, mouse fibroblasts (AID 2010); assay type: functional;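 note: cells exposed to compound for about 90 hours before reading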
[5] = inhibitors of intracellular T. cruzi replication, confirmation, NIH3T3 host cells, beta-gal luminescence (AID 2044); assay type: functional, cell-based;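 note: intracellular parasites grown in NIH/3T3 mouse fibroblasts as host cells; luminescent beta-galactosidase reporter signal from transgenic T. cruzi replicating inside host cells; inhibitors lower the luminescence signal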
[6] = target: T5, Runt-related transcription factor 1/Core-binding factor subunit beta (Homo sapiens, UniProt Q01196+Q13951); test: inhibitors of RUNX1 Runt–CBFb-SMMHC binding, biochemical, TR-FRET (AID 1438); assay type: protein assay
T5 sequence (Q01196 whole entry, the tested form may be a part): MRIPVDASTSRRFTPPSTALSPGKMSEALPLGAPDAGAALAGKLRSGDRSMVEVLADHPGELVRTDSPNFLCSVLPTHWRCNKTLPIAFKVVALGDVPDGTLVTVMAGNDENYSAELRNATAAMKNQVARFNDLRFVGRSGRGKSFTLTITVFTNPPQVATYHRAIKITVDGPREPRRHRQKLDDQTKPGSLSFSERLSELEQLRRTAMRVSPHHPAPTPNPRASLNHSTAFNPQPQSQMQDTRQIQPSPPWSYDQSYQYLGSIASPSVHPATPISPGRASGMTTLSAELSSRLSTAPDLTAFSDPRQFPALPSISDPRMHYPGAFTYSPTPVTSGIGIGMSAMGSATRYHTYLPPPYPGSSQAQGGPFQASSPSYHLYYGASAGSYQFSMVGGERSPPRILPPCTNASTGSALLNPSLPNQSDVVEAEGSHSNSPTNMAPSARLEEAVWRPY
T5 sequence (Q13951 whole entry, the tested form may be a part): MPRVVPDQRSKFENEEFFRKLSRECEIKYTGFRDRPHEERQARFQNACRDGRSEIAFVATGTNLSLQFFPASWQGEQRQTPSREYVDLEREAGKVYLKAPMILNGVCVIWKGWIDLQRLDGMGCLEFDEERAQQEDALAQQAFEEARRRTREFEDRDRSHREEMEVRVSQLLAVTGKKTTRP

[7] = target: T5, Runt-related transcription factor 1/Core-binding factor subunit beta; test: inhibitors of RUNX1 Runt–CBFb-SMMHC binding, primary screen, biochemical, FRET, Cerulean-Runt, Venus-CBFb-SMMHC, uHTS (AID 1434); assay type: protein assay;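 note: partner is the CBFb-SMMHC leukemia fusion protein rather than wild-type CBFb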
[8] = target: T6, Mannose-6-phosphate isomerase (Homo sapiens, UniProt P34949); test: human PMI inhibitors, high substrate, primary screen, biochemical, fluorescence intensity, high mannose 6-phosphate (AID 1220)
T6 sequence (P34949 whole entry): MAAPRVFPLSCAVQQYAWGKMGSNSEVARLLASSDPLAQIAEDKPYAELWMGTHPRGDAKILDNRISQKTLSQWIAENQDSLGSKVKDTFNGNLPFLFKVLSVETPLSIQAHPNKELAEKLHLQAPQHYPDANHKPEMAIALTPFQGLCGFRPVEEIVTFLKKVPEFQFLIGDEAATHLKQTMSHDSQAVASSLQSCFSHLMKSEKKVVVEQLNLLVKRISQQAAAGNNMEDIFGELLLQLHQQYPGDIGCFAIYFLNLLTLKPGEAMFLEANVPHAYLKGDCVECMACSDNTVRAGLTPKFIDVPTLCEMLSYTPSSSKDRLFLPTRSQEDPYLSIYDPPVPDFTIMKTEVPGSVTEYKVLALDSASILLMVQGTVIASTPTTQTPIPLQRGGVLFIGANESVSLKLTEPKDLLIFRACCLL

[9] = C. albicans growth with fluconazole, confirmation, fluorescence, retest (AID 2467); assay type: functional, cell-based
[10] = NIH-3T3 fibroblast cytotoxicity, dose response, cytotoxicity control, cell-based, fluorescence, Alamar Blue, secondary assay (AID 2327); assay type: functional;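 note: NIH-3T3 mouse fibroblasts cultured with fluconazole at 8 µg/mL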
[11] = target: Induced myeloid leukemia cell differentiation protein Mcl-1 (Homo sapiens, UniProt Q07820); assay type: functional
Induced myeloid leukemia cell differentiation protein Mcl-1, sequence (Q07820 whole entry): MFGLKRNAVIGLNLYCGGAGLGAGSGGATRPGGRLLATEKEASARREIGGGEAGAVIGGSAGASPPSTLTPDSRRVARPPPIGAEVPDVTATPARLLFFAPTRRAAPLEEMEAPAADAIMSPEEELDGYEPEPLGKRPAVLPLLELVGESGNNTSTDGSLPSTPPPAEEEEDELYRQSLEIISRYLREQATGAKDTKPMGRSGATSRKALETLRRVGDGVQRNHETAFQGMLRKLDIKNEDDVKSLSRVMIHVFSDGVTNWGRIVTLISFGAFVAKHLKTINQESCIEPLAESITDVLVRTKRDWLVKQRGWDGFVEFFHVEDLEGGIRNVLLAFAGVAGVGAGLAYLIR

Prothrombin = Prothrombin (Bos taurus, UniProt P00735); test: thrombin inhibition, dose response, biochemical, fluorescence polarization, uHTS hits (AID 602369); assay type: functional
[12] = target: 26S proteasome non-ATPase regulatory subunit 14 (Homo sapiens, UniProt O00487); test: inhibition of proteasome subunit RPN11 – biochemical, fluorescence polarization, uHTS hits, confirmation (AID 602368); assay type: functional
26S proteasome non-ATPase regulatory subunit 14, sequence (O00487 whole entry): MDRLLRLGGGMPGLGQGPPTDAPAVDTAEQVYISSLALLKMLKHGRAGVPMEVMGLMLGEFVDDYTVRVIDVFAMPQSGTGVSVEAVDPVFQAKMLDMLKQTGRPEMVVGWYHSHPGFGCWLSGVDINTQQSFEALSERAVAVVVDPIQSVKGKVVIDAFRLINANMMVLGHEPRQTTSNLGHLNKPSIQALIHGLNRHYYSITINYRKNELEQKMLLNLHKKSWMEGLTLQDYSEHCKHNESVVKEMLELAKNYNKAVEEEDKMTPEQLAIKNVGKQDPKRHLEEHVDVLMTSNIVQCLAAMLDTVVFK

[13] = target: 72 kDa type IV collagenase (Homo sapiens, UniProt P08253); test: Dose Response validation of uHTS RPN11 inhibitor hits using a MMP-2 Fluorescence assay.; assay type: functional
72 kDa type IV collagenase, sequence (P08253 whole entry): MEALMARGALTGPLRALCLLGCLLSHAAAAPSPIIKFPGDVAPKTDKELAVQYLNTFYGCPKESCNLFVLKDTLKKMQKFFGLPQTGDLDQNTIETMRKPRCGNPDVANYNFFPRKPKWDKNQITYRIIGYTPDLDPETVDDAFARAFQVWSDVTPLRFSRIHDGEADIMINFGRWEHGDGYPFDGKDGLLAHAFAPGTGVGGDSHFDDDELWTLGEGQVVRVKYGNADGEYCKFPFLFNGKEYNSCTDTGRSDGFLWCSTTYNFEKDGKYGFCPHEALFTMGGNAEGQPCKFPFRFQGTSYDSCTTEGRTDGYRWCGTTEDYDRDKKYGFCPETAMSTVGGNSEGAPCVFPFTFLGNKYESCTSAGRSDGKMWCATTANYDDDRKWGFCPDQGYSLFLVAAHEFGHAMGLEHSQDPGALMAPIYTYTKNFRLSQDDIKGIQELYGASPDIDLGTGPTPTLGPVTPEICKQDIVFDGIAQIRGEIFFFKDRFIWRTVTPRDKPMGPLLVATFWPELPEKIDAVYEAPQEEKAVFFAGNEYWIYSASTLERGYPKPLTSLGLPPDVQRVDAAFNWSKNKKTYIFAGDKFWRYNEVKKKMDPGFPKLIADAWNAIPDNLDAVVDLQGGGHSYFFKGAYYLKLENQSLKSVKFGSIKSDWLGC

[14] = target: T7, Aryl hydrocarbon receptor (Homo sapiens, UniProt P35869); test: Luminescence-based cell-based high throughput dose response assay for activators of the Aryl Hydrocarbon Receptor (AHR). [Related pubchem assays: 2796 (Primary screen (AHR activators in singlicate)), 2845 (Confirmation screen (AHR activators in triplicate)), 434939 (Counterscreen (PXR activators in triplicate)), 2804 (Summary (AHR activators))]; assay type: ADME
T7 sequence (P35869 whole entry): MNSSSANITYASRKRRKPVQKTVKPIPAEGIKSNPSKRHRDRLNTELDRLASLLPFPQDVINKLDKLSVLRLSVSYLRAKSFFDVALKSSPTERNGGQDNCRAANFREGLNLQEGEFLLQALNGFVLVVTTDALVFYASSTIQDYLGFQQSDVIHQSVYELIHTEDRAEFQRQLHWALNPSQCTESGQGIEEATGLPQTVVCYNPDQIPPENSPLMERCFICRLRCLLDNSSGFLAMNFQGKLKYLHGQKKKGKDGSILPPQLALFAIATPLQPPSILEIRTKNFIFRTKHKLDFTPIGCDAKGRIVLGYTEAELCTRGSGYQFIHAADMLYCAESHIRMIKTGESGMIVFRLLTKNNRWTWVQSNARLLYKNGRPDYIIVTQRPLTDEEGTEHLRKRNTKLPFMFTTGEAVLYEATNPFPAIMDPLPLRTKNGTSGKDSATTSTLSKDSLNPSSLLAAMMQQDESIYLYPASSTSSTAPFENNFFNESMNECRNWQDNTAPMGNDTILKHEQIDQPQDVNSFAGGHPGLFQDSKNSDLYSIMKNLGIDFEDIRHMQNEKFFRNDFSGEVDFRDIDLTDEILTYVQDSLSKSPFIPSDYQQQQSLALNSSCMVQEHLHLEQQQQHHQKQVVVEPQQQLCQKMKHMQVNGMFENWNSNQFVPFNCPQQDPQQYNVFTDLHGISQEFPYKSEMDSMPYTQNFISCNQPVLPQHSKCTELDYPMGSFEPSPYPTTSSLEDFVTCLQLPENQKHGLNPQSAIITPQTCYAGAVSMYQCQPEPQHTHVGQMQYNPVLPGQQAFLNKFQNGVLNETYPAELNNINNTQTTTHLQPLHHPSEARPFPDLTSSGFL

Compound: CN(C(=O)c1ccc2c(c1)SC1=NS(=O)(=O)CCN12)C(c1ccccc1)c1ccccc1
AC50 [1]: 138 µM (active)
EC50 [2]: > 195 µM (not active)
AC50 (CAAX prenyl protease 2): 2.1 µM (active)

Compound: Cc1ccc(O)c(NC(=O)c2cc3nc4c(c(C(F)(F)F)n3n2)CCc2ccccc2-4)c1
IC50 (SUMO-activating enzyme): 63.7 µM (active)

Compound: Oc1c(N=NC(S)=Nc2ccccc2F)c2ccccc2n1Cc1ccccc1Cl
AC50 [1]: 210 µM (active)
AC50 (HEK293): 18.7 µM (active)
EC50 [4]: 17.5 µM (active)
EC50 [5]: 1.28 µM (active)

Compound: O=C(CC1Sc2ccccc2NC1=O)OCc1cc(=O)oc2cc(O)ccc12 (centres undefined)
IC50 [6]: 19.6 µM (active)
IC50 [7]: 2.71 µM (active)

Compound: Cc1cccc(N2CCc3c2nc2ccc(Br)cc2c3N)c1
IC50 [8]: > 50 µM (not active)
EC50 [9]: 1.67 µM (active)
AC50 [1]: 94.9 µM (active)
EC50 [10]: 21.4 µM (inconclusive)
AC50 (CAAX prenyl protease 2): 8.82 µM (active)

Compound: CC(C)CNC(=O)c1c(N)n(Cc2ccco2)c2nc3ccccc3nc12
IC50 [11]: 4.4 µM (not active)
IC50 [6]: 11.7 µM (active)
IC50 [7]: 1.86 µM (active)

Compound: CCCCC1=CC2=CC(=O)C(C)(OC(=O)C3CCCC3)C(=O)C2=CO1 (centres undefined)
EC50 [3]: > 100 µM (inactive)
IC50 (Prothrombin): 7.84 µM (active)
IC50 [12]: 7.64 µM (active)
IC50 [13]: > 100 µM (inactive)

Compound: COc1cccc2c(=O)c3cccc(N)c3[nH]c12
EC50 [14]: > 91.8 µM (not active)
IC50 [11]: 6.38 µM (not active)
IC50 [6]: > 100 µM (inactive)
IC50 [7]: > 100 µM (inactive)

Now from value to compound:

IC50 (Coagulation factor XII): > 50 µM (inactive)
Compound: O=C(Nc1nccs1)c1cccc(S(=O)(=O)N2CCCCC2)c1

IC50 (Coagulation factor XII): > 50 µM (inactive)
Compound: CCc1cc2cc(C(=O)Nc3ccccc3F)sc2s1

EC50 [3]: > 100 µM (inactive)
Compound: Cc1ccc(S(=O)(=O)Nc2nc(-c3ccccc3)cs2)cc1
